Reference: US20050203063A1, “Proteasome pathway inhibitors and related methods” (priority 2003, published 2005)

Legend:
26S proteasomes [1] = target: T1, 26S proteasomes; assay: Deubiquitination of UbSic1 by epoxomicin-treated purified 26S proteasomes; format: biochemical, S. cerevisiae; conditions: titration, epoxomicin-treated proteasomes
T1 construct: IC50, deubiquitination of UbSic1; other: titration, epoxomicin-treated proteasomes; other: 5 μM C92
Description: (§1) FIG. 2. […] (A) Degradation of UbSic1. Purified 26S proteasomes were preincubated in the presence or absence of test compounds. UbSic1 was then added, and degradation assayed as described (6). Py mock refers to the pyridine solvent in which C23 was dissolved which was marginally inhibitory, unlike the 50% DMSO vehicle used for other test compounds. (B) Deubiquitination of UbSic1. […] UbSic1 was then added, and deubiquitination was assayed as described (6). (C) Titration curve with varying concentrations of C92 to determine half-maximal inhibition of deubiquitination. (D) C92 inhibits binding of UbSic1 to 26S proteasomes. Purified 26S proteasomes immobilized on anti-Flag beads were incubated with UbSic1 in the presence or absence of C92 as described (6). Following binding, beads were washed and analyzed by immunoblotting with anti-Sic1 polyclonal serum. (E) Binding of UbSic1 to the polyUb binding proteins Rpn10 and Rad23 is inhibited by C92. Recombinant Gst-Rpn10 and Gst-Rad23 (1 μg each) were immobilized on glutathione sepharose beads and then incubated with UbSic1 in the presence or absence of C92. Following binding, beads were washed and analyzed by immunoblotting. (F) C92 interacts with multiUb chains. Equivalent amounts (5 μg) of purified Gst, Gst-fusion protein or multiUb chains were incubated with C92 or C1 before being loaded on a 5% native polyacryamide gel. Electrophoresis was performed as described (33). (G) C92 and C59 interact specifically with K48-linked Ub on native gels. Ub (16 μM), K48-linked diUb (8 μM), or tetraUb chains (8 μM) were preincubated with a two fold-molar excess (monoUb and diUb), or equivalent amounts (tetraUb) of test compounds before being resolved on native gels as in (G). Tetra K29Ub, K48Ub, and K63Ub refer to tetraubiquitin chains wherein the ubiquitins are linked via K29, K48, or K63.
FIG. 5. […] Assays were performed and evaluated as summarized in the legend to FIG. 2B. The metal chelating reagent phenanthroline is designated as “P”, and “Py” refers to the pyridine solvent that is used as the solvent for C23. (B) Titration curve for C59. (C) Inhibition of binding of ubiquitin conjugates to Gst-Rpn10 by C92 and C59, but not other compounds. The experiment was performed as described for FIG. 2E.
(§2) 26S proteasomes were purified from S. cerevisiae cells expressing a Flag-tagged proteasomal subunit (PRE1) essentially as described (28).
Reactions were processed as above.

Gst-Rpn10 = target: T2, Gst-Rpn10 (Saccharomyces cerevisiae, UniProt P38886); assay: Binding of UbSic1 to Gst-Rpn10 on glutathione sepharose beads
T2 construct: made in house
T2 sequence (P38886 1-268): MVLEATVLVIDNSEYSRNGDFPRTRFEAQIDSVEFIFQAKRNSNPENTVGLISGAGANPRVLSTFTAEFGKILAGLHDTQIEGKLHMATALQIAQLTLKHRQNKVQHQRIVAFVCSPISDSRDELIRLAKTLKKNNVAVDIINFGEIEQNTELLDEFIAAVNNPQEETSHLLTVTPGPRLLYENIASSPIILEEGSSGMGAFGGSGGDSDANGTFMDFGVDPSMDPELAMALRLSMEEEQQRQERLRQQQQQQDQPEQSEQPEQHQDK
Description: as §1, with “(F) C92 interacts with multiUb chains. Equivalent amounts (5 μg) of purified Gst, Gst-fusion protein or multiUb chains were incubated with C92 or C1 before being loaded on a 5% native polyacryamide gel. Electrophoresis was performed as described (33). (G) C92 and C59 interact specifically with K48-linked Ub on native gels. Ub (16 μM), K48-linked diUb (8 μM), or tetraUb chains (8 μM) were preincubated with a two fold-molar excess (monoUb and diUb), or equivalent amounts (tetraUb) of test compounds before being resolved on native gels as in (G). Tetra K29Ub, K48Ub, and K63Ub refer to tetraubiquitin chains wherein the ubiquitins are linked via K29, K48, or K63.” left out
FIG. 5. […] Assays were performed and evaluated as summarized in the legend to FIG. 2B. […]
Recombinant Gst-Rpn10 and Gst-Rad23 were immobilized on glutathione sepharose beads. […] Aliquots were analyzed by immunoblotting.

26S proteasomes [2] = target: T3, 26S proteasomes (Saccharomyces cerevisiae, UniProt P38886+P43588); assay: 26S proteasome integrity on native gel (Coomassie Blue); format: biochemical; conditions: concentrations that inhibit ubiquitin-dependent proteolysis
T3 construct: 26S proteasomes were purified from S. cerevisiae cells expressing a Flag-tagged proteasomal subunit (PRE1); made in house; host or cells: S. cerevisiae cells expressing Flag-tagged PRE1
T3 sequence (P43588 whole entry, one chain of several): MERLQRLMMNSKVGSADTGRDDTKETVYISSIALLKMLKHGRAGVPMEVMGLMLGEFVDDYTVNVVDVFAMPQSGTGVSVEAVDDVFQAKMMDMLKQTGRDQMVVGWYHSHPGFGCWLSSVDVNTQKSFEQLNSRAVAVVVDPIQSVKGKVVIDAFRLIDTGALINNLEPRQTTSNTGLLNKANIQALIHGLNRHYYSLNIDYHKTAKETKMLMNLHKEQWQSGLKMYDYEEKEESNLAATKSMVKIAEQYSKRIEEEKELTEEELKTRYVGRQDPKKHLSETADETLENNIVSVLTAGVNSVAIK
Description: FIG. 6. […] (A) Purified 26S proteasomes were preincubated with test compounds before being resolved on a native gel. Following electrophoresis, the gel was stained with Coomassie Blue. […] Same as (A), except that following electrophoresis, the gel was incubated with fluorescent substrate to determine peptidase activity, which was visualized using a UV transilluminator (9). […] (C) Untreated 26S proteasomes were resolved on a native gel. Following electrophoresis, the gel was incubated with the peptidase substrate in the presence of ubistatin.
as §2

[3] = target: T4, K29-linked ubiquitin chains (Homo sapiens, UniProt P0CG47); assay: Native gel mobility shift of ubiquitin chains; format: binding; conditions: tetraUb, equivalent amount of compound
T4 construct: tetraubiquitin chains wherein the ubiquitins are linked via K29, K48, or K63
Description: as §1
(§3) Selective recognition of the multiubiquitin chain by the 26S proteasome constitutes the first step in UbSic1 degradation (9). Applicants therefore assayed the binding of UbSic1 to 26S proteasomes pre-treated with C92. […] Previous work by applicants has shown that multiubiquitin chain receptors Rad23 and Rpn10 serve a redundant role in sustaining UbSic1 degradation in vitro and in vivo (14). In the absence of the ubiquitin-binding activity of Rpn10, UbSic1 is not recruited, deubiquitinated, or degraded by purified 26S proteasomes. Thus, to further establish the mechanism by which C92 inhibited binding of UbSic1 conjugates to the proteasome, applicants tested whether C92 could interfere with binding of UbSic1 to recombinant Rpn10 and Rad23. […] To distinguish whether C92 inhibited proteolysis by binding to proteasome receptor proteins or to the Ub chain on Sic 1, applicants exploited the negative charge of C92 to determine whether compound binding induced a mobility shift of the target proteins on native gels. C92 was pre-incubated with recombinant Rpn10, Rad23, or a mixture of Ub chains containing 2-7 Ub molecules. […] Remarkably, the binding of C92 and C59 to ubiquitin chains was exquisitely linkage specific. Ubiquitin molecules can be linked to each other in vivo through different internal lysines, including K29, K48, and K63(19). The K48-linked chain is the principal targeting signal in proteolysis whereas K63-linked chains are implicated in enzyme regulation; no physiological function for K29-linked chains has yet been discovered (20).

[4] = target: T5, K48-linked ubiquitin chains (Homo sapiens, UniProt P0CG47); assay: Native gel mobility shift of ubiquitin chains; format: binding; conditions: for native gel mobility of K48-linked ubiquitin chains: diUb with two fold-molar excess, tetraUb with equivalent amount of compound
T5 construct: a mixture of Ub chains containing 2-7 Ub molecules
Description: as §1, §3

[5] = target: T6, K63-linked ubiquitin chains (Homo sapiens, UniProt P0CG47); assay: Native gel mobility shift of ubiquitin chains; format: binding; conditions: tetraUb, equivalent amount of compound
T6 construct: tetraubiquitin chains wherein the ubiquitins are linked via K29, K48, or K63
Description: as §1, §3

SMILES	IC50 (26S proteasomes [1]) [nM]	inhibition of binding of UbSic1 to Rpn10 (Gst-Rpn10)	effect on 26S proteasome integrity / assembly (26S proteasomes [2])	native gel mobility of K29-linked chains [3]	native gel mobility of K48-linked ubiquitin chains [4]	native gel mobility of multiUb chains ([4]; mixture of Ub chains containing 2-7 Ub molecules)	native gel mobility of K63-linked chains [5]
O=C(Nc1ccc(/C=C/c2ccc(NC(=O)c3cc(S(=O)(=O)O)c4cccnc4c3O)cc2S(=O)(=O)O)c(S(=O)(=O)O)c1)c1cc(S(=O)(=O)O)c2cccnc2c1O [Compound 92]	~400	abolished binding	without affecting	little or no effect	efficiently shifted	bound Ub chains	little or no effect
O=S(=O)(O)c1ccc2cc3c(cc2c1)NN(c1ccc(/C=C/c2ccc(N4Nc5cc6ccc(S(=O)(=O)O)cc6cc5N4)cc2S(=O)(=O)O)c(S(=O)(=O)O)c1)N3 [Compound 59]	1000	abrogated binding	without affecting	little or no effect	efficiently shifted	–	little or no effect
